Patent US10695337B2, “Piperidin-4-yl azetidine derivatives as JAK1 inhibitors” (Incyte Corporation, priority 2010, dated 2020)

Legend:
Format in all cases: biochemical
[1] = target: human JAK1 (a.a. 837-1142) (Homo sapiens, UniProt P23458); test: In vitro JAK kinase assay (HTRF, phosphorylation of a biotinylated peptide), JAK1; details: measured at 1 mM ATP
How it was run: (§1)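 N-terminally His-tagged catalytic domains, baculovirus-expressed in insect cells and purified, were used as enzyme. Reactions ran 1 hr at room temperature and were stopped with a mix of 45 mM EDTA, 300 nM SA-APC and 6 nM Eu-Py20. The HTRF signal was read after 40 min of antibody binding.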

[2] = target: human JAK1 (a.a. 837-1142); test: as above; details: measured at 1 mM ATP; JAK2 IC50 / JAK1 IC50
How it was run: as §1

[3] = target: human Jak2 (a.a. 828-1132) (Homo sapiens (Human), UniProt O60674); test: In vitro JAK kinase assay (HTRF, phosphorylation of a biotinylated peptide), JAK2; details: measured at 1 mM ATP
Method: Compounds herein were tested for inhibitory activity of JAK targets according to the following in vitro assay described in Park et al., Analytical Biochemistry 1999, 269, 94-104. The catalytic domains of human JAK1 (a.a. 837-1142), Jak2 (a.a. 828-1132) and Jak3 (a.a. 781-1124) with an N-terminal His tag were expressed using baculovirus in insect cells and purified. The catalytic activity of JAK1, JAK2 or JAK3 was assayed by measuring the phosphorylation of a biotinylated peptide. The phosphorylated peptide was detected by homogenous time resolved fluorescence (HTRF). […] Reactions were carried out at room temperature for 1 hr and then stopped with 20 μL 45 mM EDTA, 300 nM SA-APC, 6 nM Eu-Py20 in assay buffer (Perkin Elmer, Boston, Mass.). Binding to the Europium labeled antibody took place for 40 minutes and HTRF signal was measured on a Fusion plate reader (Perkin Elmer, Boston, Mass.).

Chain of human Jak2 (a.a. 828-1132) (O60674 828-1132): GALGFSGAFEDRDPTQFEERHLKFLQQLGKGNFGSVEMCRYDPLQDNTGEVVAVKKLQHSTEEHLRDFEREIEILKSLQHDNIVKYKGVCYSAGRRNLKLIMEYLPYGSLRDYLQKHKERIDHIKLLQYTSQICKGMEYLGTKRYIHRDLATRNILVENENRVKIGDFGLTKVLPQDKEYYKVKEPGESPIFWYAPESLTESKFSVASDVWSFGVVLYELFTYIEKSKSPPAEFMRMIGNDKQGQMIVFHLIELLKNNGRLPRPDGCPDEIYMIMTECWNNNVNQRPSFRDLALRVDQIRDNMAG

SMILES | IC50 [1] [nM] | IC50 Ratio JAK2/JAK1 [2] | IC50 [3] [nM]
N#CCC1(n2cc(-c3ncnc4[nH]ccc34)cn2)CN(C2CCN(C(=O)c3ccc(-c4cccc5cccnc45)c(F)c3)CC2)C1 [Example 132, {1-[1-(3-fluoro-4-quinolin-8-ylbenzoyl)piperidin-4-yl]-3-[4-(7H-pyrrolo[2,3-d]pyrimidin-4-yl)-1H-pyrazol-1-yl]azetidin-3-yl} acetonitrile] | ≤ 5 | 5.8 | 
CC1CC(N2CC(CC#N)(n3cc(-c4ncnc5[nH]ccc45)cn3)C2)CCN1C(=O)c1cccc(F)c1 (single isomer, unassigned) [Example 150, {1-[1-(3-fluorobenzoyl)-2-methylpiperidin-4-yl]-3-[4-(7H-pyrrolo[2,3-d]pyrimidin-4-yl)-1H-pyrazol-1-yl]azetidin-3-yl}acetonitrile] |  | 7.0 | ≤ 10
CC1CC(N2CC(CC#N)(n3cc(-c4ncnc5[nH]ccc45)cn3)C2)CCN1Cc1ccc(N(C)C)c(C#N)c1F (single isomer, unassigned) [Example 242, 3-[(4-{3-(cyanomethyl)-3-[4-(7H-pyrrolo[2,3-d]pyrimidin-4-yl)-1H-pyrazol-1-yl]azetidin-1-yl}-2-methylpiperidin-1-yl)methyl]-6-(dimethylamino)-2-fluorobenzonitrile] | ≤ 5 | 8.3 | 10 to 50
CC1CC(N2CC(CC#N)(n3cc(-c4ncnc5[nH]ccc45)cn3)C2)CCN1Cc1ccc(N(C)C)c(C#N)c1F (single isomer, unassigned) [Example 243, 3-[(4-{3-(cyanomethyl)-3-[4-(7H-pyrrolo[2,3-d]pyrimidin-4-yl)-1H-pyrazol-1-yl]azetidin-1-yl}-2-methylpiperidin-1-yl)methyl]-6-(dimethylamino)-2-fluorobenzonitrile] | 20 to 30 | 6.4 | > 100
CC1CC(N2CC(CC#N)(n3cc(-c4ncnc5[nH]ccc45)cn3)C2)CCN1C(=O)c1cccc(F)c1 (single isomer, unassigned) [Example 149, {1-[1-(3-fluorobenzoyl)-2-methylpiperidin-4-yl]-3-[4-(7H-pyrrolo[2,3-d]pyrimidin-4-yl)-1H-pyrazol-1-yl]azetidin-3-yl}acetonitrile] |  | 5.0 | 10 to 50
N#CCC1(n2cc(-c3ncnc4[nH]ccc34)cn2)CN(C2CCN(C(=O)c3ccc(C#N)cc3)CC2)C1 [Example 12, 4-[(4-{3-(cyanomethyl)-3-[4-(7H-pyrrolo[2,3-d]pyrimidin-4-yl)-1H-pyrazol-1-yl]azetidin-1-yl}piperidin-1-yl)carbonyl]benzonitrile] |  | 5.2 | 
COc1ncccc1NC(=O)N1CCC(N2CC(CC#N)(n3ccc(-c4ncnc5[nH]ccc45)c3)C2)CC1 [Example 284, 4-{3-(cyanomethyl)-3-[3-(7H-pyrrolo[2,3-d]pyrimidin-4-yl)-1H-pyrrol-1-yl]azetidin-1-yl}-N-(2-methoxypyridin-3-yl)piperidine-1-carboxamide] |  | 5.8 | 
CC(C)COC(=O)N1CCC(N2CC(CC#N)(n3cc(-c4ncnc5[nH]ccc45)cn3)C2)CC1 [Example 390, isobutyl 4-{3-(cyanomethyl)-3-[4-(7H-pyrrolo[2,3-d]pyrimidin-4-yl)-1H-pyrazol-1-yl]azetidin-1-yl}piperidine-1-carboxylate] |  | 8.3 | 
N#CCC1(n2cc(-c3ncnc4[nH]ccc34)cn2)CN(C2CCN(Cc3cccc(C#N)c3)CC2)C1 [Example 223, 3-[(4-{3-(cyanomethyl)-3-[4-(7H-pyrrolo[2,3-d]pyrimidin-4-yl)-1H-pyrazol-1-yl]azetidin-1-yl}piperidin-1-yl)methyl]benzonitrile] |  | 5.9 | 
Cc1ccc(NC(=O)N2CCC(N3CC(CC#N)(n4cc(-c5ncnc6[nH]ccc56)cn4)C3)CC2)c(C)n1 [Example 189, 4-{3-(cyanomethyl)-3-[4-(7H-pyrrolo[2,3-d]pyrimidin-4-yl)-1H-pyrazol-1-yl]azetidin-1-yl}-N-(2,6-dimethylpyridin-3-yl)piperidine-1-carboxamide] |  | 3.5 | 
